Values quoted from earlier work as cited in patent US8759216B2, “Compositions and methods for polishing silicon nitride materials” (Cabot Microelectronics Corporation, priority 2006, dated 2014).
Where two headings read alike, the source gives them in different places.

Row | SMILES | pKa (first listed pKa value) | pKa (second listed pKa value)
1 | O=C(O)CCCC(=O)O [glutaric] | 4.34 | 5.41
2 | OP(O)O [phosphorous, phosphorous acid] | 2.00 | 6.59
3 | O=C(O)c1ccccc1C(=O)O [phthalic, phthalic acid] | 2.89 | 5.51
